In patent US7498348B2, “1 H-imidazole derivatives as cannabinoid receptor modulators” (Solvay Pharmaceuticals, Inc., priority 2003, dated 2009):
≈ marks a conversion by molar mass, not a printed value. Read-outs that look alike come from different tables or passages of the source.

Legend:
[1] = Determination of aqueous solubility (precipitate formation after 100-fold dilution of DMSO stock solutions); type: physicochemical; conditions: kinetic from dmso stock
Description: Determination of Aqueous Solubility
The compounds are dissolved in DMSO to give 10 mg/ml stock solutions. These stock solutions are divided over several plates. Several diluted concentrations are made with DMSO to 5, 2.5, 1.25, 0.625 and 0.3125 mg/ml, respectively. The stock solution and each derived concentration from this stock solution is taken and diluted 100 fold with water or with water containing a buffer. In every case this gives an aqueous solution which contains 1% DMSO (v/v) and 100, 50, 25, 12.5 and 6.25 and 3.125 μg compound/ml, respectively. The formation of a precipitate is determined in each plate. The measurements were performed at pH=7, applying a HEPES buffer and at pH=2, applying hydrochloric acid. Aqueous solubility is expressed in μg/ml in the table below.
Aqueous solubilities of two of the compounds of general formula (I), the compounds 1 and 4, and the compound 1-(4-chlorophenyl)-2-(2,4-dichloro-phenyl)-N-cyclohexyl-1H-imidazole-4-carboxamide (compound 3 from WO 03/063781) were determined according to the procedure described above.

[2] = biological target: T1, human cannabinoid CB1 receptor (Homo sapiens, UniProt P21554); assay: In vitro affinity for cannabinoid-CB1 receptors ([3H]CP-55,940 radioligand, CHO cell membrane preparations); type: binding; conditions: CHO cell membranes, stably transfected human CB1, [3H]CP-55,940; read-out: Human cannabinoid-CB1 receptor In vitro affinity - pKi value (converted)
T1 construct: expressed in transfected cells; host or cells: Chinese hamster ovary (CHO) cells, stably transfected; membrane preparations
Description: In Vitro Affinity for Cannabinoid-CB1 Receptors
The affinity of the compounds of the invention for cannabinoid CB1 receptors can be determined using membrane preparations of Chinese hamster ovary (CHO) cells in which the human cannabinoid CB1 receptor is stably transfected in conjunction with [^3H]CP-55,940 as radioligand. After incubation of a freshly prepared cell membrane preparation with the [^3H]-ligand, with or without addition of compounds of the invention, separation of bound and free ligand is performed by filtration over glassfiber filters. Radioactivity on the filter is measured by liquid scintillation counting.
Pharmacological test results of a subset of the compounds of the invention, obtained with the assay described above, are given in table 2 below: […]

T1 sequence (P21554 whole entry): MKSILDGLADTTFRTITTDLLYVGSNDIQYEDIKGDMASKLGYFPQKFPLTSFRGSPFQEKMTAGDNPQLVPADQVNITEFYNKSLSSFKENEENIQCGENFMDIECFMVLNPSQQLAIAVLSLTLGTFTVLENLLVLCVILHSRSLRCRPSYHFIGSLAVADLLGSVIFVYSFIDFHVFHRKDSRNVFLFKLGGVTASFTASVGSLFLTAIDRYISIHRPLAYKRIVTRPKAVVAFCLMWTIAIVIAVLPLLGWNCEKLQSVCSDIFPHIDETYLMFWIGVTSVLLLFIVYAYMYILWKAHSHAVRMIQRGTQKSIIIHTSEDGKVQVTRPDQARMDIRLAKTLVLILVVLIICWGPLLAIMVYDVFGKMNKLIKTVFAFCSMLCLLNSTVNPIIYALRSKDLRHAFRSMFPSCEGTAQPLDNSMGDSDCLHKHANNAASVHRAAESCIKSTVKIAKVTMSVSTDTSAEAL

Structure (SMILES) | solubility ([1]; pH 2, simulated gastric fluid) | solubility ([1]; pH 7, aqueous buffer) | melting point | Ki [2] | solubility ([1]; aqueous buffer, pH = 7, HEPES buffer, 1% DMSO (v/v), read-out: Aqueous solubility in μg/ml at pH = 7) | solubility ([1]; simulated gastric fluid, pH = 2, hydrochloric acid, 1% DMSO (v/v), read-out: Aqueous solubility in μg/ml at pH = 2)
O=C(NC1CCCCC1)c1cn(-c2ccc(Cl)cc2)c(-c2ccc(Cl)cc2Cl)n1 [1-(4-chlorophenyl)-2-(2,4-dichloro-phenyl)-N-cyclohexyl-1H-imidazole-4-carboxamide, reference compound] | 25 µg/mL (≈ 55.7 µM) | 25 µg/mL (≈ 55.7 µM) | – | – | – | –
O=C(NC1CCCCC1)c1nc(-c2ccc(Cl)cc2Cl)n(-c2ccc(Cl)cc2)c1CN1CCCC1 [Compound 1, N-cyclohexyl-1-(4-chlorophenyl)-2-(2,4-dichlorophenyl)-5-(pyrrolidin-1-ylmethyl)-1H-imidazole-4-carboxamide] | > 100 µg/mL | 50 µg/mL (≈ 94 µM) | 155 to 157 °C | 7.94 nM | – | –
CCN(C)Cc1c(C(=O)NC2CCCCC2)nc(-c2ccc(Cl)cc2Cl)n1-c1ccc(Cl)cc1 [Compound 2, N-cyclohexyl-1-(4-chlorophenyl)-2-(2,4-dichlorophenyl)-5-(N-ethyl,N-methylaminomethyl)-1H-imidazole-4-carboxamide] | – | – | 135 to 136 °C | 6.31 nM | – | –
CN(C)Cc1c(C(=O)NN2CCCCC2)nc(-c2ccc(Cl)cc2Cl)n1-c1ccc(Cl)cc1 [Compound 3, N-(piperidin-1-yl)-1-(4-chlorophenyl)-2-(2,4-dichlorophenyl)-5-(N,N-dimethylaminomethyl)-1H-imidazole-4-carboxamide] | – | – | 163 to 166 °C | 100 nM | – | –
CN(C)Cc1c(C(=O)NC2CCCCC2)nc(-c2ccc(Cl)cc2Cl)n1-c1ccc(Cl)cc1 [Compound 4, N-cyclohexyl-1-(4-chlorophenyl)-2-(2,4-dichlorophenyl)-5-(N,N-dimethylaminomethyl)-1H-imidazole-4-carboxamide] | – | – | – | 31.6 nM | 50 µg/mL (≈ 98.8 µM) | > 100 µg/mL
CCN(C)Cc1c(C(=O)NN2CCCCC2)nc(-c2ccc(Cl)cc2Cl)n1-c1ccc(Cl)cc1 [Compound 6, N-(piperidin-1-yl)-1-(4-chlorophenyl)-2-(2,4-dichlorophenyl)-5-(N-ethyl, N-methylaminomethyl)-1H-imidazole-4-carboxamide] | – | – | – | 126 nM | – | –
